Assay results: US20060063784A1, “Method of using substituted pyrazolo [1,5-a] pyrimidines” (priority 2004, published 2006)
pIC50: −log10 of the molar value. Where two headings read alike, the source gives them in different places.

System: 80S14 (p21-deficient) cells
Test: Cytotoxicity assay using isogenic cell lines: IC50 in 80S14 (p21-deficient) cells, SRB
Type: cell-based, human
Conditions: for pIC50: SRB
Summary of the method: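 IC50 is the concentration halving proliferation relative to untreated controls, read from SRB absorbance (560 nm) after TCA fixation. Test agent dilutions (5 pM–50 μM or 170 pg/ml–10 μg/ml) were left on p21-deficient 80S14 cells (12,000/well, pre-incubated overnight) for 5 days at 37 °C.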

[1] = Homo sapiens, 120 h, 80S14 (p21-deficient) cells, 5 days, class symbols, read-out: IC50 for 80S14
[2] = Homo sapiens, 120 h, 80S14 p21-deficient cells, 5 days incubation, read-out: IC50 for 80SI4
[3] = 80S14 p21-deficient cells, 5 days incubation, read-out: IC50 for 80SI4

Compound | pIC50 [2] | also measured
CCN(C(=O)C1CC1)c1cccc(-c2ccnc3c(C(=O)c4ccco4)cnn23)c1 [Example 257, N-Ethyl-N-[3-[3-(2-furanylcarbonyl)pyrazolo[1,5-a]pyrimidin-7-yl]phenyl}-cyclopropanecarboxamide] |  | pIC50 [1]: 4.30 to 5.00
CC(OC(=O)Nc1cccc(-c2ccnc3c(C(=O)c4cccs4)cnn23)c1)C1CC1 (stereo not shown) [Example 190, 1-cyclopropylethyl 3-[3-(thien-2-ylcarbonyl)pyrazolo[1,5-a]pyrimidin-7-yl]phenylcarbamate] | > 6.00 | 
CCNC(=O)NCC(=O)Nc1cccc(-c2ccnc3c(C(=O)c4cccs4)cnn23)c1 [Example 137, N-2-[(ethylamino)carbonyl]-N-1-{3-[3-(thien-2-ylcarbonyl)pyrazolo[1,5-a]pyrimidin-7-yl]phenyl}glycinamide] |  | pIC50 [3]: 5.00 to 6.00
O=C(CCCl)Nc1cccc(-c2ccnc3c(C(=O)c4cccs4)cnn23)c1 [Example 139, 3-chloro-N-{3-[3-(thien-2-ylcarbonyl)pyrazolo[1,5-a]pyrimidin-7-yl]phenyl}propanamide] | > 6.00 | 
O=C(Nc1cccc(-c2ccnc3c(C(=O)c4cccs4)cnn23)c1)c1cccc(Br)c1 [Example 286, 3-Bromo-N-{3-[3-(2-thienylcarbonyl)pyrazolo[1,5-a]pyrimidin-7-yl]phenyl}benzamide] |  | pIC50 [1]: > 6.00
COc1cccc(CC(=O)Nc2cccc(-c3ccnc4c(C(=O)c5cccs5)cnn34)c2)c1 [Example 107, 2-(3-methoxyphenyl)-N-{3-[3-(thien-2-ylcarbonyl)pyrazolo[1,5-a]pyrimidin-7-yl]phenyl}acetamide] | > 6.00 | 
CCCCOC(=O)NCC(=O)Nc1cccc(-c2ccnc3c(C(=O)c4cccs4)cnn23)c1 [Example 116, butyl 2-oxo-2-({3-[3-(thien-2-ylcarbonyl)pyrazolo[1,5-a]pyrimidin-7-yl]phenyl}amino)ethylcarbamate] | > 6.00 | 
CCOC(=O)C(=O)Nc1cccc(-c2ccnc3c(C(=O)c4cccs4)cnn23)c1 [Example 41, ethyl oxo({3-[3-(thien-2-ylcarbonyl)pyrazolo[1,5-a]pyrimidin-7-yl]phenyl}amino)acetate] | 4.30 to 5.00 | 
COc1ccc(C(=O)Nc2cccc(-c3ccnc4c(C(=O)c5cccs5)cnn34)c2)cc1OC [Example 99, 3,4-dimethoxy-N-{3-[3-(thien-2-ylcarbonyl)pyrazolo[1,5-a]pyrimidin-7-yl]phenyl}benzamide] | 5.00 to 6.00 | 
C[C@H](NC(=O)Nc1cccc(-c2ccnc3c(C(=O)c4cccs4)cnn23)c1)c1ccccc1 [Example 11, N-[(1S)-1-phenylethyl]-N′-{3-[3-(thien-2-ylcarbon1)pyrazolo[1,5-a]pyrimidin-7-yl]phenyl}urea] |  | pIC50 [3]: 5.00 to 6.00
CCCCC(CC)C(=O)Nc1cccc(-c2ccnc3c(C(=O)c4cccs4)cnn23)c1 (stereo not shown) [Example 147, 2-ethyl-N-{3-[3-(thien-2-ylcarbonyl)pyrazolo[1,5-a]pyrimidin-7-yl}phenyl}hexanamide] | 5.00 to 6.00 | 
CC(CCNc1cccc(-c2ccnc3c(C(=O)c4cccs4)cnn23)c1)c1ccccc1 (stereo not shown) [Example 400, (7-{3-[(3-Phenylbutyl)amino]phenyl}pyrazolo[1,5-a]pyrimidin-3-yl)(thien-2-yl)methanone] |  | pIC50 [1]: 5.00 to 6.00
CC(C)CC(=O)NCC(=O)Nc1cccc(-c2ccnc3c(C(=O)c4cccs4)cnn23)c1 [Example 133, 3-methyl-N-[2-oxo-2-({3-[3-(thien-2-ylcarbonyl)pyrazolo[1,5-a]pyrimidin-7-yl]phenyl}amino)ethyl]butanamide] | 5.00 to 6.00 | 
CN(C)S(=O)(=O)Nc1cccc(-c2ccnc3c(C(=O)c4cccs4)cnn23)c1 [Example 40, N,N-dimethyl-N′-{3-[3-(thien-2-ylcarbonyl)pyrazolo[1,5-a]pyrimidin-7-yl]phenyl}sulfamide] | 5.00 to 6.00 | 
3-(3,5-Dimethylphenyl)-7-{3-[2-(2-piperidin-1-ylethyl)-2H-tetrazol-5-yl]phenyl}pyrazolo[1,5-a]pyrimidine [Example 500] |  | pIC50 (80S14 (p21-deficient) cells, 5 days, class symbols, read-out: IC50 for 80S14): 5.00 to 6.00
O=C(c1cccs1)c1cnn2c(-c3cccc(NS(=O)(=O)c4ccccc4)c3)ccnc12 [Example 31, N-{3-[3-(thien-2-ylcarbonyl)pyrazolo[1,5-a]pyrimidin-7-yl]phenyl}benzenesulfonamide] | 5.00 to 6.00 | 
O=C(c1ccccc1)c1cnn2c(-c3cccc(N4CCCCC4=O)c3)ccnc12 [Example 227, 1-[3-(3-Benzoylpyrazolo[1,5-a]-pyrimidin-7-yl)phenyl]-2-piperidinone] |  | pIC50 [1]: 4.30 to 5.00
CC(C)OC(=O)Nc1cccc(-c2ccnc3c(C(=O)c4cccs4)cnn23)c1 [Example 15, isopropyl 3-[3-(thien-2-ylcarbonyl)pyrazolo[1,5-a]pyrimidin-7-yl]phenylcarbamate] |  | IC50 (Homo sapiens, 80S14, 120 h, read-out: IC50 for 80SI4 (uM)): < 1 µM
C=CCC(C)OC(=O)Nc1cccc(-c2ccnc3c(C(=O)c4cccs4)cnn23)c1 (stereo not shown) [Example 189, 1-methylbut-3-enyl 3-[3-(thien-2-ylcarbonyl)pyrazolo[1,5-a]pyrimidin-7-yl]phenylcarbamate] | > 6.00 | 
O=C(CNC(=O)C1CC1)Nc1cccc(-c2ccnc3c(C(=O)c4cccs4)cnn23)c1 [Example 126, N-[2-oxo-2-({3-[3-(thien-2-ylcarbonyl)pyrazolo[1,5-a]pyrimidin-7-yl]phenyl}amino)ethyl]cyclopropanecarboxamide] | 4.30 to 5.00 | 
Cc1cnc2c(C(=O)c3cccs3)cnn2c1-c1cccc(NC(=O)CC(C)C)c1 [Example 215, 3-methyl-N-{3-[6-methyl-3-(thien-2-ylcarbonyl)pyrazolo[1,5-a]pyrimidin-7-yl]phenyl}butanamide] | 4.30 to 5.00 | 
C=CCOC(=O)Nc1cccc(-c2c(C)cnc3c(C(=O)c4cccs4)cnn23)c1 [Example 210, allyl 3-[6-methyl-3-(thien-2-ylcarbonyl)pyrazolo[1,5-a]pyrimidin-7-yl]phenylcarbamate] | 4.30 to 5.00 | 
CN(C(=O)C1CC1)c1cccc(-c2ccnc3c(C(=O)c4ccccc4)cnn23)c1 [Example 236, N-[3-(3-benzoylpyrazolo[1,5-a]-pyrimidin-7-yl)phenyl]-N-methyl-cyclopropanecarboxamide] |  | pIC50 [1]: 4.30 to 5.00
Cc1cc(-c2cccc(NC(=O)C3CCC3)c2)n2ncc(C(=O)c3cccs3)c2n1 [Example 279, N-{3-[5-Methyl-3-(2-thienylcarbonyl)pyrazolo[1,5-a]pyrimidin-7-yl]phenyl}cyclobutanecarboxamide] |  | pIC50 [1]: > 6.00
COC(=O)c1cccc(-c2ccnc3c(C(=O)c4cccs4)cnn23)c1 [Example 306, Methyl 3-[3-(2-thienylcarbonyl)pyrazolo[1,5-a]pyrimidin-7-yl]benzoate] |  | pIC50 [1]: 4.30 to 5.00
O=C(Cc1ccc(F)cc1)Nc1cccc(-c2ccnc3c(C(=O)c4cccs4)cnn23)c1 [Example 109, 2-(4-fluorophenyl)-N-{3-[3-(thien-2-ylcarbonyl)pyrazolo[1,5-a]pyrimidin-7-yl]phenyl}acetamide] | > 6.00 | 
CCCCCC/C(=C\c1ccccc1)CNc1cccc(-c2ccnc3c(C(=O)c4cccs4)cnn23)c1 [Example 409, [7-(3-{[(2E)-2-Hexyl-3-phenylprop-2-enyl]amino}phenyl)pyrazolo[1,5-a]pyrimidin-3-yl] (thien-2-yl)methanone] |  | pIC50 [1]: 4.30 to 5.00
CC(CC(=O)Nc1cccc(-c2ccnc3c(C(=O)c4cccs4)cnn23)c1)CC(C)(C)C (stereo not shown) [Example 140, 3,5,5-trimethyl-N-{3-[3-(thien-2-ylcarbonyl)pyrazolo[1,5-a]pyrimidin-7-yl]phenyl}hexanamide] | > 6.00 | 
